Reference: ChEMBL document CHEMBL5291721, “A preclinical secondary pharmacology resource illuminates target-adverse drug reaction associations of marketed drugs” (Nat Commun, 2023)

Assays:
Adenosine receptor A1 = molecular target: T1, Adenosine receptor A1 (Homo sapiens, UniProt P30542)
T1 sequence (P30542 whole entry): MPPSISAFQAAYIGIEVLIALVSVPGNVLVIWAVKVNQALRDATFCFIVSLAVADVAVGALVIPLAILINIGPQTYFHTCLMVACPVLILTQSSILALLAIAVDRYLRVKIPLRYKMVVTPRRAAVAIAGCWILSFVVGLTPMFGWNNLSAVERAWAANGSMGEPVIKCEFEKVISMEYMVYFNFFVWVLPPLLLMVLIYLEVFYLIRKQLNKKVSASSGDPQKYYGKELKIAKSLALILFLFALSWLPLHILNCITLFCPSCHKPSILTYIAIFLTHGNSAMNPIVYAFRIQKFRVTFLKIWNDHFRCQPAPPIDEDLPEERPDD

[1] = molecular target: T2, Alpha-1A adrenergic receptor (Homo sapiens, UniProt P35348); assay type: functional, cell-based
T2 sequence (P35348 whole entry): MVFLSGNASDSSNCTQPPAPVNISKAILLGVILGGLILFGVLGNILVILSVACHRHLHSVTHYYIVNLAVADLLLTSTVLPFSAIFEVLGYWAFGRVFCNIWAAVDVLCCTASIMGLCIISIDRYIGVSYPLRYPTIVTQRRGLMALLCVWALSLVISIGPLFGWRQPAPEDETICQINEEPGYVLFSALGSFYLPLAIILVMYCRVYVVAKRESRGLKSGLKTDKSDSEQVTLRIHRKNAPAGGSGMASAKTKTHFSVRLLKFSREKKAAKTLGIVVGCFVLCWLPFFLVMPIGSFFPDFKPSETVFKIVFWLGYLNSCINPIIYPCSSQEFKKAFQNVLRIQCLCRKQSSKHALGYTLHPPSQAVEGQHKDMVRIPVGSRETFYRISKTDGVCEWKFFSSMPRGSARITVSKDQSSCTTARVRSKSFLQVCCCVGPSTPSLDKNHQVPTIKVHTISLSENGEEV

[2] = molecular target: T3, Muscarinic acetylcholine receptor M2 (Homo sapiens, UniProt P08172); assay type: functional, cell-based
T3 sequence (P08172 whole entry): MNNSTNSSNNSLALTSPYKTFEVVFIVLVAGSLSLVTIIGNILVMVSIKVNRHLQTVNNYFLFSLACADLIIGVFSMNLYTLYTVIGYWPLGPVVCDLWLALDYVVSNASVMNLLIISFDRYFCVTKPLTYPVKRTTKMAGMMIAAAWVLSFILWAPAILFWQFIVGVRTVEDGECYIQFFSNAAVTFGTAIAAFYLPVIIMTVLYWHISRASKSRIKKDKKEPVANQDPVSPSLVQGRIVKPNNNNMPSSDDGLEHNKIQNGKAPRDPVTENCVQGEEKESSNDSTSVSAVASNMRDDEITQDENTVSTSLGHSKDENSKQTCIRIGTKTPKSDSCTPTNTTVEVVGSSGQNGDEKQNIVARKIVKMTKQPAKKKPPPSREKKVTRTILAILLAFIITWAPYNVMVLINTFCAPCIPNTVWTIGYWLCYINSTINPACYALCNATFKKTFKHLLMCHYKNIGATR

[3] = molecular target: Growth hormone secretagogue receptor type 1 (Homo sapiens, UniProt Q92847)
Chain of Growth hormone secretagogue receptor type 1 (Q92847 whole entry): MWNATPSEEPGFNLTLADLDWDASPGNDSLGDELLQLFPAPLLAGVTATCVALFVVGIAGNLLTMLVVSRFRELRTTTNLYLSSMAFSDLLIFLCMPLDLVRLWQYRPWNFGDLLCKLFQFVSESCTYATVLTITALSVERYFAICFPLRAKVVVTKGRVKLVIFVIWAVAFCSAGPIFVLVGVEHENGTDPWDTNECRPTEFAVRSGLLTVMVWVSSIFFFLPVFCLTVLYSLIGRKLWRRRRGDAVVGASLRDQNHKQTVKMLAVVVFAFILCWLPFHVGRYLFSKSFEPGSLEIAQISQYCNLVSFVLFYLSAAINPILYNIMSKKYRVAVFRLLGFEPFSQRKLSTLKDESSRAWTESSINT

Motilin receptor = Motilin receptor (Homo sapiens, UniProt O43193)
Chain of Motilin receptor (O43193 whole entry): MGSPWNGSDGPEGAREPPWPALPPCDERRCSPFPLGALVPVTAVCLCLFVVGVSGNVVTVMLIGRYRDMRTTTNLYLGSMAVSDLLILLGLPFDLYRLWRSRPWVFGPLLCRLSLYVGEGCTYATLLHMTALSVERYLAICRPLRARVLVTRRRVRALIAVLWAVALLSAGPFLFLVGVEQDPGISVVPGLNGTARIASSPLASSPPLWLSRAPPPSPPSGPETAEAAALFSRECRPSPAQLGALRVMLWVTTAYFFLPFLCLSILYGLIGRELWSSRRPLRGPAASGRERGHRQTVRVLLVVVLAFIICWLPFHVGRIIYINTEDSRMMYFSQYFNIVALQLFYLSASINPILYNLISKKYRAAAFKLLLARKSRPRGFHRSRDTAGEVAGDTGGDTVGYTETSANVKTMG

D(3) dopamine receptor = D(3) dopamine receptor (Homo sapiens, UniProt P35462)
Chain of D(3) dopamine receptor (P35462 whole entry): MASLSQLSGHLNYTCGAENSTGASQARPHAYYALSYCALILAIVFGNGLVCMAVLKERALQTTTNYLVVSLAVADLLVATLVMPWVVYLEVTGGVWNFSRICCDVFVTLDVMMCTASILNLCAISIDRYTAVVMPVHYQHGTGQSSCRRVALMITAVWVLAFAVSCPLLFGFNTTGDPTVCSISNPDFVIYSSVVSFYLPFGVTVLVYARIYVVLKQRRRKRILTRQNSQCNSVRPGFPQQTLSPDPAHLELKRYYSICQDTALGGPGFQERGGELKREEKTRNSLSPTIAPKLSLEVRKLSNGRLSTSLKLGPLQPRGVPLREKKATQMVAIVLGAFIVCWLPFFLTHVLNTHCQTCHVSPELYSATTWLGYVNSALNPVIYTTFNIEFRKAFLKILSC

[4] = molecular target: T2, Alpha-1A adrenergic receptor; assay type: functional, cell-based; remark: listed apart in the source
Histamine H3 receptor = Histamine H3 receptor (Homo sapiens, UniProt Q9Y5N1)
Chain of Histamine H3 receptor (Q9Y5N1 whole entry): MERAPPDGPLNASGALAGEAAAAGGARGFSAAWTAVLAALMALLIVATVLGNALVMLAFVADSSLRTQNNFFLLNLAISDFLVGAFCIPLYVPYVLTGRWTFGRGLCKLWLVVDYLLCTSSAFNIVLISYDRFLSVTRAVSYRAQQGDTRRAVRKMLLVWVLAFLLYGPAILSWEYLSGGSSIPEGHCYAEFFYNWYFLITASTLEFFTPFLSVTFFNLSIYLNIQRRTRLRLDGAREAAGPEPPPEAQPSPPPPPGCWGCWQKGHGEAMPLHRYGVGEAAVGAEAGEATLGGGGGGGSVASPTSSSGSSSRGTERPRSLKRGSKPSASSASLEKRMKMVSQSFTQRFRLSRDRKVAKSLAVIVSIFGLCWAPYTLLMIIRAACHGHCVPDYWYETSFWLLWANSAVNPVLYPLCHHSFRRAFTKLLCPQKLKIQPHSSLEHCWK

Vasopressin V2 receptor = Vasopressin V2 receptor (Homo sapiens, UniProt P30518)
Chain of Vasopressin V2 receptor (P30518 whole entry): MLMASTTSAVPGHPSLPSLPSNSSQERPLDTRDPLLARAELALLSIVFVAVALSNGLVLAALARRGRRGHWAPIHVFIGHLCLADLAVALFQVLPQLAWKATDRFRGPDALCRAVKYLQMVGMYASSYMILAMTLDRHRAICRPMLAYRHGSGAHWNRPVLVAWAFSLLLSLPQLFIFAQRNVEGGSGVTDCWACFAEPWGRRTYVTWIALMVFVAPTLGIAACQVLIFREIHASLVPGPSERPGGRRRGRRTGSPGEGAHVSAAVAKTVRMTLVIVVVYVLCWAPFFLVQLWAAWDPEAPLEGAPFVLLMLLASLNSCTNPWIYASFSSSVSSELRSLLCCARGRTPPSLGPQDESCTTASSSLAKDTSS

Thromboxane A2 receptor = molecular target: T4, Thromboxane A2 receptor (Homo sapiens, UniProt P21731)
T4 sequence (P21731 whole entry): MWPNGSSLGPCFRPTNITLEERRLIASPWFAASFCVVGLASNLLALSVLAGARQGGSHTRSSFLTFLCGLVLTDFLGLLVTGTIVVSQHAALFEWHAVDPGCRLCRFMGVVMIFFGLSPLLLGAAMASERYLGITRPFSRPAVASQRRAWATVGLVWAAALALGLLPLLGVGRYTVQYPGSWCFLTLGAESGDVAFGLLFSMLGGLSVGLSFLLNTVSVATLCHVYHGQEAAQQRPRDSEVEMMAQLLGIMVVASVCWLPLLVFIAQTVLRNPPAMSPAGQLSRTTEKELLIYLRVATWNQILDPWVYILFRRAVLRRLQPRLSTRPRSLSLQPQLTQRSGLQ
Further: assay procedure not described here.

Row | SMILES | AC50 (Adenosine receptor A1) [µM] | AC50 [1] [µM] | AC50 [2] [µM] | AC50 [3] [µM] | AC50 (Motilin receptor) [µM] | AC50 (D(3) dopamine receptor) [µM] | AC50 [4] [µM] | AC50 (Histamine H3 receptor) [µM] | AC50 (Vasopressin V2 receptor) [µM] | AC50 (Thromboxane A2 receptor) [µM]
1 | CC(=N)N1CC[C@H](SC2=C(C(=O)O)N3C(=O)[C@H]([C@@H](C)O)[C@H]3C2)C1 | > 300 | > 300 | > 300 | > 300 | > 300 | > 300 | > 300 | > 300 |  | 
2 | CC(/C=C1\SC(=S)N(CC(=O)O)C1=O)=C\c1ccccc1 | 15 | > 30 | > 30 | > 30 | > 30 |  | 25 | > 30 | > 30 | 27
3 | CC1(C)S[C@@H]2[C@H](NC(=O)[C@H](N)c3ccc(O)cc3)C(=O)N2[C@H]1C(=O)O [AMOXICILLIN] | > 30 | > 30 | > 30 | > 30 | > 30 | > 30 | > 30 | > 30 | > 30 | > 30
4 | C=C(C)[C@@H]1CCC(C)=C[C@H]1c1c(O)cc(CCCCC)cc1O [CANNABIDIOL] | > 30 | > 30 | > 0.3 | > 30 | 20.5 | > 30 | > 10 | 26 |  | 
5 | CC1(C)O[C@@H]2C[C@H]3[C@@H]4C[C@H](F)C5=CC(=O)C=C[C@]5(C)[C@H]4[C@@H](O)C[C@]3(C)[C@]2(C(=O)CO)O1 [FLUNISOLIDE] | > 30 | > 30 | > 30 | > 30 | > 30 | > 30 | 0.048 | > 30 |  | 
6 | CCC(=O)O[C@@H](O[P@](=O)(CCCCc1ccccc1)CC(=O)N1C[C@H](C2CCCCC2)C[C@H]1C(=O)O)C(C)C [FOSINOPRIL] |  | > 30 | > 30 |  |  | > 30 | > 30 |  |  | 
7 | C[C@H]1Oc2cc(cnc2N)-c2c(nn(C)c2C#N)CN(C)C(=O)c2ccc(F)cc21 [LORLATINIB] | > 30 | > 30 | > 30 | > 30 | > 30 | > 30 | > 30 | > 30 |  | 
8 | COc1ccc(Cc2nccc3cc(OC)c(OC)cc23)cc1OC [PAPAVERINE] | > 30 | > 30 | > 30 | > 30 | > 30 | > 30 | > 30 | > 30 | > 30 | > 30
9 | CNC[C@H](O)c1cccc(O)c1 [PHENYLEPHRINE] | > 30 |  | > 10 | > 30 | > 10 | 4.1 |  | > 10 | > 30 | > 30
10 | CNC(=O)c1cc(Oc2ccc(NC(=O)Nc3ccc(Cl)c(C(F)(F)F)c3)c(F)c2)ccn1 [REGORAFENIB] |  | > 30 | > 30 |  |  | > 30 | > 30 |  |  | 
11 | CCOc1cc(CC(=O)N[C@@H](CC(C)C)c2ccccc2N2CCCCC2)ccc1C(=O)O [REPAGLINIDE] | > 30 | 27 | > 30 | > 30 | > 30 | > 30 | > 30 | > 30 |  | 
12 | CCCN(CCc1cccs1)[C@H]1CCc2c(O)cccc2C1 [ROTIGOTINE] | > 30 |  | > 10 | 29 | > 30 |  |  | > 30 |  | 
13 | CC[C@H]1OC(=O)[C@H](C)[C@@H](O[C@H]2C[C@@](C)(OC)[C@@H](O)[C@H](C)O2)[C@H](C)[C@@H](O[C@@H]2O[C@H](C)C[C@H](N(C)C)[C@H]2O)[C@](C)(O)C[C@@H](C)/C(=N\OCOCCOC)[C@H](C)[C@@H](O)[C@]1(C)O [ROXITHROMYCIN] | > 30 | > 30 | > 30 | > 30 | 9 | > 30 | > 30 | > 30 |  | 
14 | CN1CCN(CCCN2c3ccccc3Sc3ccc(S(=O)(=O)N(C)C)cc32)CC1 [THIOPROPERAZINE] |  | > 30 | 12 |  |  | 0.031 | 1 |  |  | 
